{"source": "patent US20240252493A1", "about": "“Apelin Receptor Modulators for Treating Age-Related Muscle Conditions” (BIOAGE LABS, INC., priority 2021, published 2024)", "type_in_all_cases": "in vivo", "key": {"[1]": {"system": "aged (24-month-old) C57BL/6 mice", "test": "Grid hang test (forearm grip strength)", "conditions": "after 64 days of treatment, vs vehicle", "description": "Four 20-gallon plastic buckets were used to suspend a three-by-three-foot metal grid suspended approximately three feet from the ground. The ground just below the grid was padded with soft material. The metal grid was placed on its side so that it was perpendicular to the buckets' surface. […] Once the grid was completely parallel with the horizontal plane (i.e. the floor), the timer was started. The timer was stopped when the mouse fell onto the padded floor and the time to fall was recorded and graphed.\n(§1) To determine whether increased wheel activity was accompanied by an increase in muscle strength, near the end of the frailty study the mice were subjected to a grid hang test, which measures forearm grip strength. […] Average latency to fall increased in the BGE-105-treated mice (p=0.04, Mann-Whitney U test) (FIGS. 3B and 3C). Thus, the increase in running activity observed in BGE-105-treated mice were accompanied by improved forearm grip strength."}, "[2]": {"system": "aged (24-month-old) C57BL/6 mice", "test": "Tissue wet weight and body weight at end of frailty study", "conditions": "vs vehicle", "description": "(§2) The animals were housed with access to voluntary running wheels that wirelessly transmit running data to a computer for analysis. Voluntary running wheel activity levels were measured daily, and body weights were measured every 2 weeks.\nas §1"}, "[3]": {"system": "aged (24-month-old) C57BL/6 mice", "test": "Activity monitoring wheel test (frailty study)", "conditions": "24-month-old mice", "description": "as §2\nThe study concluded on Study Day 83. Activity wheel monitoring started on Study Day 1 and ended on Study Day 83 (Phase Day 64). The data was analyzed at the end of the study. […] For the frailty portion of the study, mice were assessed using an activity monitoring wheel which was monitored passively with a computer monitoring system. […]\nThe activity-monitoring wheel is a running disk that monitors rotations. […] Activity was monitored passively and wirelessly with a computer monitoring system. Running wheel activity levels were monitored daily. […] Mouse activity levels were measured as the number of wheel revolutions per day for each mouse and converted into a daily count of kilometers run using the diameter of the wheel. Within each experimental group, the daily median value for activity was calculated. […] The daily differences between the distances run in each group were calculated and tested for an increasing trend using Kendall's rank correlation tau."}, "[4]": {"system": "tibialis of aged mice", "test": "CTX-induced muscle injury: histology (cross-sectional area, centrally nucleated fibers)", "description": "Impairment of muscle regeneration can contribute to age-related muscle weakness. This is particularly true in aged individuals who engage in physical activity. Exercise-induced muscle hypertrophy is linked to the capacity of muscle stem cells to be activated and promote regeneration.\nMice were i.p injected with buprenorphine (Centravet, 0.1 mg/kg) 30 minutes before injury and the day after. The day of the injury, mice were anesthetized with isoflurane inhalation and hindlimbs were shaved. Then, 10 μM of cardiotoxin (CTX, Latoxan, #L8102) was injected through two injections of 25 μl into the left tibialis muscle and two injections of 50 μl into the left gastrocnemius muscle, using a 22-gauge needle (Hamilton). Mice were euthanized 3 and 7 days after injury by cervical dislocation, muscles (PBS- and CTX-injected) were cut in two parts, one being snap frozen into liquid nitrogen for total RNA extraction and the other part being embedded into OCT, frozen in isopentane cooled with liquid nitrogen for histological analysis.\nMouse muscle samples were dissected and cryopreserved in OCT frozen in liquid nitrogen cooled isopentane. Samples were then sectioned at 10 μm on a cryostat and post-fixed with 4% Paraformaldehyde (PFA) for 15min at room temperature. Muscle frozen sections (10 μm) were stained by helaun/eosin or immune-labeled for laminin (Abcam) and embryonic myosin. Briefly, sections were blocked 1 h in PBS plus 4% BS(a), 2% goat serum, 0.01% Triton X-100. Sections were then incubated overnight with primary antibodies. After washes in PBS, sections were incubated 1 h with secondary antibodies anti-Ig2b AF 488 (Life Technology). Slides were finally mounted in ProLong Gold antifade Reagent (Molecular probes by Life Technology) with DAPI. Images were captured using a digital camera (Nanozoomer, Hamamatsu) attached to a motorized fluorescence microscope or using Olympus VS120 Virtual Microscopy Slide Scanning System. The area covered by eMHC-positive fibers and degenerated area was determined manually across the entire sections using the VS-ASW FL software measurement tools. The size of myofibers with central nuclei was calculated from laminin/DAPI staining on all fibers of the section and area determination were performed across the entire sections, using an automated image processing algorithm developed internally using the MetaXpress software (Molecular Devices)."}}, "note": "Entries after “also recorded” stand apart in the source; their conditions may differ.", "data": [{"smiles": "COc1cccc(OC)c1-n1c(NS(=O)(=O)[C@@H](C)[C@H](C)c2ncc(C)cn2)nnc1-c1cncc(C)c1", "note": "[BGE-105, (2S,3R)—N-(4-(2,6-dimethoxyphenyl)-5-(5-methyl-3-pyridinyl)-4H-1,2,4-triazol-3-yl)-3-(5-methyl-2-pyrimidinyl)-2-butanesulfonamide]", "values": [{"measurement": "latency to fall in grid hang test (grip strength)", "setting": "[1]", "result": "statistically significant improvement in grip strength; also recorded: increase in the latency to fall; also recorded: increased"}, {"measurement": "body weight", "setting": "[2]", "result": "the increase was not significant"}, {"measurement": "tissue wet weight, gastrocnemius", "setting": "[2]", "result": "trend toward higher tissue wet weight"}, {"measurement": "tissue wet weight, heart", "setting": "[2]", "result": "no difference"}, {"measurement": "tissue wet weight, quadriceps", "setting": "[2]", "result": "trend toward higher tissue wet weight"}, {"measurement": "tissue wet weight, tibialis anterior (TA)", "setting": "[2]", "result": "significantly higher tissue wet weight"}, {"measurement": "voluntary running wheel activity vs age-matched controls", "setting": "[3]; 275 ug/mL in drinking water ad libitum, 64 days", "result": "statistically significant increase in voluntary motor activity; also recorded: significantly more active; also recorded: decreased significantly less"}, {"measurement": "distance run more than vehicle-treated mice at end of experimental period", "setting": "[3]; 275 ug/mL in drinking water, both experiments, on average", "result": "at least 1 km/day"}, {"measurement": "amount of centrally nucleated myofibers (CNM)", "setting": "[4]; 18-months old mice after cardiotoxin, apelin 0.5 μmol/kg/day, BGE-105 200 mg/kg/day", "result": "significant increase"}, {"measurement": "central nuclei in regenerating fibers", "setting": "[4]; aged mice after cardiotoxin, BGE-105 50 or 200 mg/kg/day", "result": "promoted accumulation of central nuclei; also recorded: dose-dependent increase in central nucleated fibers"}, {"measurement": "cross-sectional area of the tibialis", "setting": "[4]; aged mice, 3 and 7 days post cardiotoxin, apelin, BGE-105 50 and 200 mg/kg/d", "result": "positive effect; also recorded: significant increase in cross sectional area"}]}]}
